# Source: patent publication EP4685482A1, “METHOD FOR SELECTING DRUGS FOR THE TREATMENT OF MENTAL HEALTH PATHOLOGIES” (Neomente Corp, priority 2023, dated 2024)
# Test system: Patients diagnosed with unipolar depression
# Assay: Clinical follow-up of patients with the SIGH-D-17 scale (treatment as usual vs guided by the Clinical Decision Support System), case examples
# Type: in vivo
# Conditions: for response to treatment regimen (patient history): Example 1: regimen of escitalopram, sertraline, risperidone, clonazepam and lamotrigine
# Description: Patients diagnosed with unipolar depression were recruited and divided into two groups. The first group Treatment as Usual (TAU) received treatment according to psychiatry clinical guidelines. The second group received Clinical Decision Support System Guided (CCDSg) additional support from the method for selecting neuropsychiatric drugs. Follow-up was conducted using the SIGH-D-17 scale in both groups at the beginning of treatment and 8 and 12 weeks. […]
# Based on the algorithm results, it was decided to discontinue the previous pharmacological regimen and initiate a new one consisting of desvenlafaxine and aripiprazole. A significant response was observed within 8 weeks of treatment initiation (69% reduction in SIGH-D-17 scale).
# While awaiting the results of the application of this method, pharmacological treatment with sertraline was initiated. […] These findings are consistent with the genetic variations found (alteration of the CYP2C19 enzyme). Subsequently, and with the results of the application of this method, pharmacological treatment with vortioxetine was implemented, achieving remission at 12 weeks.
# (53% reduction in SIGH-D-17 scale).
# [1] = Example 3: person, treatment-resistant unipolar depression
# [2] = Example 4: person, depressive episode
# [3] = Example 1: person, severe unipolar depression, new regimen consisting of desvenlafaxine and aripiprazole, within 8 weeks of treatment initiation
Structure (SMILES),response (pharmacological history) [1],response to treatment regimen (patient history),other results
CN(C)C(=O)N[C@H]1CC[C@H](CCN2CCN(c3cccc(Cl)c3Cl)CC2)CC1 [Cariprazine],no response,,
CN[C@H]1CC[C@@H](c2ccc(Cl)c(Cl)c2)c2ccccc21 [Sertraline],,subtherapeutic response,"side effects (Example 2: CYP2C19 intermediate metabolizer, treatment had to be discontinued): side effects at low doses"
CN(C)CCCN1c2ccccc2CCc2ccc(Cl)cc21 [Clomipramine],no response,,
O=c1ccc2ccc(OCCCCN3CCN(c4cccc5sccc45)CC3)cc2[nH]1 [Brexpiprazole],,,"reduction in SIGH-D-17 scale (Example 3: person, treatment-resistant unipolar depression, quetiapine gradually replaced by brexpiprazole, at 8 weeks of treatment): 53%"
Cc1ccc(Sc2ccccc2N2CCNCC2)c(C)c1 [Vortioxetine],no response,,"reduction in SIGH-D-17 scale (Example 2: person, mild unipolar depression, vortioxetine, remission at 12 weeks): 67%"
Nc1nnc(-c2cccc(Cl)c2Cl)c(N)n1 [lamotrigine],,subtherapeutic response,response (pharmacological history) [2]: ineffective
COc1ccc(C(CN(C)C)C2(O)CCCCC2)cc1 (stereo not shown) [Venlafaxine],,,response (pharmacological history) [2]: ineffective
N#Cc1ccc2[nH]cc(CCCCN3CCN(c4ccc5oc(C(N)=O)cc5c4)CC3)c2c1 [Vilazodone],no response,,
Cc1nc2n(c(=O)c1CCN1CCC(c3noc4cc(F)ccc34)CC1)CCCC2 [Risperidone],,subtherapeutic response,
CN(C)CC(c1ccc(O)cc1)C1(O)CCCCC1 (stereo not shown) [Desvenlafaxine],no response,,reduction in SIGH-D-17 scale [3]: 69%
O=C1CN=C(c2ccccc2Cl)c2cc([N+](=O)[O-])ccc2N1 [clonazepam],,subtherapeutic response,response (pharmacological history) [2]: poor response
CN(C)CCC[C@@]1(c2ccc(F)cc2)OCc2cc(C#N)ccc21 [Escitalopram],no response,subtherapeutic response,
O=C1CCc2ccc(OCCCCN3CCN(c4cccc(Cl)c4Cl)CC3)cc2N1 [Aripiprazole],,,reduction in SIGH-D-17 scale [3]: 69%
